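These data come from cells grown in 96-well plates and exposed to compound for 48 hours at five concentrations. GI50 = concentration required for 50% inhibition of growth.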 Activity calls are given as the source filed them. No stated cut-off is given here; in the data, active = GI50 up to about 1.1 µM and inactive = higher.
Key:
Assay in all cases: DTP human tumour cell line panel, 48 h
A498 = tested on: A498
ACHN = tested on: ACHN
BT-549 = tested on: BT-549
DU-145 = tested on: DU-145
HL-60 = tested on: HL-60
HOP-92 = tested on: HOP-92
HT-29 = tested on: HT-29
Hs-578T = tested on: Hs-578T
IGROV-1 = tested on: IGROV-1
M14 = tested on: M14
MDA-MB-231 = tested on: MDA-MB-231
MDA-MB-435 = tested on: MDA-MB-435
NCI-H23 = tested on: NCI-H23
OVCAR-8 = tested on: OVCAR-8
SF-539 = tested on: SF-539
SK-OV-3 = tested on: SK-OV-3
SN12C = tested on: SN12C
SNB-75 = tested on: SNB-75
TK-10 = tested on: TK-10
UACC-257 = tested on: UACC-257

Measured: GI50

CCOC(=O)C(CCN1CCC2(CC1)C(=O)N(C)CN2c1ccccc1)C(=O)OCC
inactive: A498 > 100 µM | ACHN > 100 µM | BT-549 > 100 µM | DU-145 > 100 µM | HL-60 > 100 µM | HOP-92 > 100 µM | HT-29 > 100 µM | Hs-578T > 100 µM | IGROV-1 > 100 µM | M14 > 100 µM | MDA-MB-231 > 100 µM | MDA-MB-435 > 100 µM | NCI-H23 > 100 µM | OVCAR-8 > 100 µM | SF-539 > 100 µM | SK-OV-3 > 100 µM | SN12C > 100 µM | SNB-75 > 100 µM | TK-10 > 100 µM | UACC-257 > 100 µM

CCN(CC)CCCNc1ccc2nnn3c4ccc(O)cc4c(=O)c1c23
inactive: A498 8.97 µM | ACHN 3.34 µM | BT-549 14 µM | DU-145 11.9 µM | HL-60 5.55 µM | HOP-92 14.6 µM | HT-29 2.65 µM | Hs-578T 14.4 µM | IGROV-1 4.86 µM | M14 9.27 µM | MDA-MB-231 7.74 µM | MDA-MB-435 10.2 µM | NCI-H23 11.2 µM | OVCAR-8 2.97 µM | SF-539 10.3 µM | SK-OV-3 8.87 µM | SN12C 5.57 µM | SNB-75 7.48 µM | TK-10 3.28 µM | UACC-257 17.9 µM

CC(=O)SC(C[N+](=O)[O-])c1ccccc1 (stereo not given)
inactive: A498 5.43 µM | ACHN 3.66 µM | BT-549 2.22 µM | DU-145 6.37 µM | HL-60 3.87 µM | HOP-92 12.6 µM | HT-29 2.06 µM | Hs-578T 4.65 µM | IGROV-1 2.32 µM | M14 3.84 µM | MDA-MB-231 10.8 µM | MDA-MB-435 2.09 µM | NCI-H23 12 µM | OVCAR-8 11.8 µM | SF-539 2.27 µM | SK-OV-3 13.3 µM | SN12C 11.1 µM | SNB-75 2.29 µM | TK-10 7.26 µM | UACC-257 11.3 µM

C/C(=C\COc1cc(O)c2c(c1)C(=O)c1cc(C)cc(O)c1C2=O)CCC1OC1(C)C (stereo not given)
inactive: A498 > 100 µM | ACHN 40.9 µM | BT-549 26.7 µM | DU-145 > 100 µM | HL-60 > 10 µM | HOP-92 29.4 µM | HT-29 > 100 µM | Hs-578T 24.1 µM | IGROV-1 68.9 µM | M14 > 100 µM | MDA-MB-231 > 100 µM | MDA-MB-435 > 100 µM | NCI-H23 > 100 µM | OVCAR-8 47.9 µM | SF-539 74 µM | SK-OV-3 > 100 µM | SN12C > 100 µM | SNB-75 28.2 µM | TK-10 40.3 µM | UACC-257 > 100 µM

COc1cc(OC)c2c(O)c(S(=O)(=O)c3ccc(C)cc3)c(=O)oc2c1
inactive: A498 > 100 µM | ACHN > 100 µM | BT-549 > 100 µM | DU-145 > 100 µM | HL-60 > 100 µM | HOP-92 > 100 µM | HT-29 > 100 µM | Hs-578T 94.6 µM | IGROV-1 > 100 µM | M14 > 100 µM | MDA-MB-231 > 100 µM | MDA-MB-435 > 100 µM | NCI-H23 > 100 µM | OVCAR-8 > 100 µM | SF-539 > 100 µM | SK-OV-3 > 100 µM | SN12C > 100 µM | SNB-75 > 100 µM | TK-10 > 100 µM | UACC-257 > 100 µM

COc1ccc(/C=N/NC(=O)C2=C(N)N(c3ccccc3)C(=C(C#N)C#N)S2)cc1
inactive: A498 22.6 µM | ACHN > 100 µM | BT-549 > 100 µM | DU-145 > 100 µM | HL-60 > 100 µM | HOP-92 39.3 µM | HT-29 > 100 µM | Hs-578T > 100 µM | IGROV-1 > 100 µM | M14 > 100 µM | MDA-MB-231 79.6 µM | MDA-MB-435 > 100 µM | NCI-H23 > 100 µM | OVCAR-8 93.8 µM | SF-539 48.1 µM | SK-OV-3 57 µM | SN12C > 100 µM | SNB-75 16 µM | TK-10 > 100 µM | UACC-257 > 100 µM

CCOP(=O)(OCC)OC1c2[nH]cc(C(=O)OCc3ccccc3)c2-c2cc(C(=O)OC)[nH]c2C1OC (stereo not given)
inactive: A498 10.6 µM | ACHN 4.66 µM | BT-549 12.1 µM | DU-145 11 µM | HL-60 6.15 µM | HOP-92 4.28 µM | HT-29 3.24 µM | Hs-578T 16.8 µM | IGROV-1 7.59 µM | M14 9.08 µM | MDA-MB-231 2.91 µM | MDA-MB-435 > 60.1 µM | NCI-H23 13.4 µM | OVCAR-8 12.8 µM | SF-539 8.45 µM | SK-OV-3 17.7 µM | SN12C 16.4 µM | SNB-75 13.2 µM | TK-10 4.91 µM | UACC-257 6.79 µM
